Target: full-length ATR (Homo sapiens (Human), UniProt Q13535)
Assay: ATR Inhibition Assay (radioactive-phosphate incorporation)
Assay type: biochemical
Conditions: read-out: ATR Ki
How it was run: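 Ki(app) was derived by non-linear regression of background-corrected initial rates of 33P incorporation into an 800 μM target peptide, read by phosphocellulose filter scintillation counting. Reaction conditions: 5 nM full-length ATR, 10 μM [γ-33P]ATP, pH 7.5 Tris buffer with MgCl2 and DTT, 25 °C, 10-min preincubation, 24 h run.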

full-length ATR, sequence (Q13535 whole entry): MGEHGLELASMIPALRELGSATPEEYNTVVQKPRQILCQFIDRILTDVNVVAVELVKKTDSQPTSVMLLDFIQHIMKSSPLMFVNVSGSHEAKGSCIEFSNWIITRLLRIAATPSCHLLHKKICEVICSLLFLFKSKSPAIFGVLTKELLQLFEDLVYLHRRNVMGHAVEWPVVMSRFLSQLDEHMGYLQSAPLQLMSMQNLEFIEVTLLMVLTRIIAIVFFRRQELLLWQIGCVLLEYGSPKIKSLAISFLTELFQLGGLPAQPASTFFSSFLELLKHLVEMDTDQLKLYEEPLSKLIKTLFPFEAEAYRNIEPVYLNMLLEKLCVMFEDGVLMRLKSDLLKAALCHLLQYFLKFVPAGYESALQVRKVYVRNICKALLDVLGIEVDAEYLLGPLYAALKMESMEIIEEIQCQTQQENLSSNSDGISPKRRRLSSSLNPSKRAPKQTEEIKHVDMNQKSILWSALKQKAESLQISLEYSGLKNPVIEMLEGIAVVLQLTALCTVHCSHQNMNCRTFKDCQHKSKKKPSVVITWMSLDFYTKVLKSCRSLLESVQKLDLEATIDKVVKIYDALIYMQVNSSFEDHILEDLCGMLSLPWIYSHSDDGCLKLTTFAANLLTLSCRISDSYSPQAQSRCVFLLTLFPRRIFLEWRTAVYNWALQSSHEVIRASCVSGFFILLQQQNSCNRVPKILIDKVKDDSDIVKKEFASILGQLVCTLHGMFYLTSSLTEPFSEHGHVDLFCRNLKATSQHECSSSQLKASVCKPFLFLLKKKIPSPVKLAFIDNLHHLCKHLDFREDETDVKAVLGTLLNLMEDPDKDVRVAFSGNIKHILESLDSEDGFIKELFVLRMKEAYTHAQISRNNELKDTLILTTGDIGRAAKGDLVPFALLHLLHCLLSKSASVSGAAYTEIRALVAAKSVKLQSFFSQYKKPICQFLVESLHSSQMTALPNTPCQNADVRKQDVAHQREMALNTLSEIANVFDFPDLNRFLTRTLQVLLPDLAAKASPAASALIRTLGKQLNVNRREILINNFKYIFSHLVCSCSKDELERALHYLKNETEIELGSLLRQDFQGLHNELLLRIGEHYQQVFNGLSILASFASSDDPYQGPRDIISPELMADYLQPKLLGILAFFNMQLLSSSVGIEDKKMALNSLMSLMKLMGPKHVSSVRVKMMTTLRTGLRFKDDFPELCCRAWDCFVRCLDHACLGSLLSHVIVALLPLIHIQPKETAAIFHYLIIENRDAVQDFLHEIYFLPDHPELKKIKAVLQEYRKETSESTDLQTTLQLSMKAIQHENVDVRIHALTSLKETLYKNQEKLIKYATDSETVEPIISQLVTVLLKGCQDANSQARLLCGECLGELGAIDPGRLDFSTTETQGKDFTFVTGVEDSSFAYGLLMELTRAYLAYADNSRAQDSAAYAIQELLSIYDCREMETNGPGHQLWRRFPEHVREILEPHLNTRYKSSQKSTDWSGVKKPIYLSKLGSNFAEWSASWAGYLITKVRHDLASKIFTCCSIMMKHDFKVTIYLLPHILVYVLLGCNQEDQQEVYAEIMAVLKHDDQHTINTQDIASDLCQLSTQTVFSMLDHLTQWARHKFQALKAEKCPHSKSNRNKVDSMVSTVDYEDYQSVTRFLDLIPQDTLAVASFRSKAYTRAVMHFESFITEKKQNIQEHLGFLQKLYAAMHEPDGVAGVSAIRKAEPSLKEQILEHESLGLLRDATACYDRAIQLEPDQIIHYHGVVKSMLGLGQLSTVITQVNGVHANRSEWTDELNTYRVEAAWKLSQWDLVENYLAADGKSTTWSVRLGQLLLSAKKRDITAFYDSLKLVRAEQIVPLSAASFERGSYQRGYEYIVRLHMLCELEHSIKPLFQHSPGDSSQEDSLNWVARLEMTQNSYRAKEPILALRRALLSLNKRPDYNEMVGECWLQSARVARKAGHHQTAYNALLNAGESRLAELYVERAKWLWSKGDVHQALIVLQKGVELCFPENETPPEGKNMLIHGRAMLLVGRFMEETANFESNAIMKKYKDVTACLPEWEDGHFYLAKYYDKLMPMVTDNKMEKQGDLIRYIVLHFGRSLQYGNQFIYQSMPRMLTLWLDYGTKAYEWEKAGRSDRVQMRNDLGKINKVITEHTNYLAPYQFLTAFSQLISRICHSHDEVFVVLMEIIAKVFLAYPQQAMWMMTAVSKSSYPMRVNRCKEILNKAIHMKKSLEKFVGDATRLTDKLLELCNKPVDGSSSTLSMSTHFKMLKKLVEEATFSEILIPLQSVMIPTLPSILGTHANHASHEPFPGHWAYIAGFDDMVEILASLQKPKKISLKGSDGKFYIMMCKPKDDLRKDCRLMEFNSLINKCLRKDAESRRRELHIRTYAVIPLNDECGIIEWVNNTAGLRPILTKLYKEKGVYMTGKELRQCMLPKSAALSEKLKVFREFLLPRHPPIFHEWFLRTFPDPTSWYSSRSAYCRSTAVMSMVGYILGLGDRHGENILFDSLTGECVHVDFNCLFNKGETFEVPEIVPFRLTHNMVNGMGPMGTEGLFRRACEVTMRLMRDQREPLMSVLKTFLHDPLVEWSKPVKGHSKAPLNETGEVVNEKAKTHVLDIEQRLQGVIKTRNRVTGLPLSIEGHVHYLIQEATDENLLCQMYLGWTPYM

Row | Ki [nM] | Compound
1 | 100 to 5000 | Cc1cccc(-c2cnc(N)c(-c3nnc(-c4ccccc4)o3)n2)c1 [IA-182, 5-(m-tolyl)-3-(5-phenyl-1,3,4-oxadiazol-2-yl)pyrazin-2-amine]
2 | 100 to 5000 | CN1CCN(c2ccc(-c3cnc(N)c(-c4nnc(-c5ccccc5)o4)n3)cn2)CC1 [IA-200, 5-(6-(4-methylpiperazin-1-yl)pyridin-3-yl)-3-(5-phenyl-1,3,4-oxadiazol-2-yl)pyrazin-2-amine]
3 | ≤ 10 | CNCc1ccc(-c2cc(-c3nc(-c4ccc(S(=O)(=O)C5CCOC5)cc4)cnc3N)on2)c(F)c1 (stereo not drawn) [IIA-16, 3-[3-[2-fluoro-4-(methylaminomethyl)phenyl]isoxazol-5-yl]-5-(4-tetrahydrofuran-3-ylsulfonylphenyl)pyrazin-2-amine]
4 | ≤ 10 | Nc1ncc(-c2ccncc2)nc1-c1nnc(-c2cccs2)o1 [IA-141, 5-(4-pyridyl)-3-[5-(2-thienyl)-1,3,4-oxadiazol-2-yl]pyrazin-2-amine]
5 | 10 to 100 | Nc1ncc(-c2ccc(C(=O)N3CCOCC3)cc2)nc1-c1nnc(-c2ccccc2)o1 [IA-13]
6 | ≤ 10 | Cc1ccsc1-c1nnc(-c2nc(-c3ccc(S(=O)(=O)CCN(C)C)cc3)cnc2N)o1 [IA-269, 5-[4-(2-dimethylaminoethylsulfonyl)phenyl]-3-[5-(3-methyl-2-thienyl)-1,3,4-oxadiazol-2-yl]pyrazin-2-amine]
7 | 10 to 100 | Nc1ncc(-c2cccnc2)nc1-c1noc(-c2ccccc2)n1 [Compound I-145]
8 | ≤ 10 | CC(C)S(=O)(=O)c1ccc(-c2cnc(N)c(-c3nnc(-c4ccc(N)cc4)o3)n2)cc1 [IA-201, 3-[5-(4-aminophenyl)-1,3,4-oxadiazol-2-yl]-5-(4-isopropylsulfonylphenyl)pyrazin-2-amine]
9 | 100 to 5000 | Cn1c(NC(=O)c2nc(-c3ccc(C(=O)N4CCCNCC4)cc3)cnc2N)nc2ccccc21 [Compound V-25]
10 | ≤ 10 | N#Cc1ncccc1-c1cnc(N)c(-c2nnc(-c3ccccc3)o2)n1 [IA-74, 3-[5-amino-6-(5-phenyl-1,3,4-oxadiazol-2-yl)pyrazin-2-yl]pyridine-2-carbonitrile]
11 | 100 to 5000 | CC(C)S(=O)(=O)c1ccc(-c2cnc(N)c(-c3nnc(N4CCC(N)CC4)o3)n2)cc1 [IA-109, 3-[5-(4-amino-1-piperidyl)-1,3,4-oxadiazol-2-yl]-5-(4-isopropylsulfonylphenyl)pyrazin-2-amine]
12 | 100 to 5000 | CN(C)C(=O)c1ccc(-c2cnc(N)c(-c3nnc(N4CCC4)o3)n2)cc1 [IA-192, 4-[5-amino-6-[5-(azetidin-1-yl)-1,3,4-oxadiazol-2-yl]pyrazin-2-yl]-N,N-dimethyl-benzamide]
13 | 10 to 100 | CC(=O)Nc1cccc(-c2cnc(N)c(-c3nnc(-c4ccccc4)o3)n2)c1 [IA-66]
14 | 10 to 100 | Cc1ccc2nc(-c3nc(-c4ccc(C(=O)N5CCN(C)CC5)cc4)cnc3N)[nH]c2c1 [III-4, (4-(5-amino-6-(6-methyl-1H-benzo[d]imidazol-2-yl)pyrazin-2-yl)phenyl)(4-methylpiperazin-1-yl)methanone]
15 | ≤ 10 | CC(C)S(=O)(=O)c1ccc(-c2cnc(N)c(-c3nnc(-c4ccc([C@H](C)N)cc4)o3)n2)cc1 [IA-228, 3-[5-[4-[(1S)-1-aminoethyl]phenyl]-1,3,4-oxadiazol-2-yl]-5-(4-isopropylsulfonylphenyl)pyrazin-2-amine]
16 | 10 to 100 | COc1ccccc1NC(=O)c1nc(-c2ccco2)cnc1N [Compound I-30, 3-amino-6-(furan-2-yl)-N-(2-methoxyphenyl)pyrazine-2-carboxamide]
17 | 100 to 5000 | CS(=O)(=O)c1ccc(-c2cnc(N)c(C(=O)Nc3n[nH]c4ccccc34)n2)cc1 [Compound V-18]

Row | Ki [nM] | Compound
18 | 10 to 100 | CC(=O)c1ccc(-c2cnc(N)c(-c3nnc(-c4ccccc4)o3)n2)cc1 [IA-110, 1-[4-[5-amino-6-(5-phenyl-1,3,4-oxadiazol-2-yl)pyrazin-2-yl]phenyl]ethanone]
19 | 100 to 5000 | Nc1ncc(-c2cccnc2)nc1C(=O)Nc1cccc2cc[nH]c12 [Compound V-15]
20 | 10 to 100 | CC(C)[S+]([O-])c1ccccc1-c1cnc(N)c(-c2nnc(-c3ccccc3)o2)n1 (stereo not drawn) [IA-136, 5-(2-(isopropylsulfinyl)phenyl)-3-(5-phenyl-1,3,4-oxadiazol-2-yl)pyrazin-2-amine]
21 | 10 to 100 | CN(C)C(=O)c1ccc(-c2cnc(N)c(-c3nnc(-c4ccccc4)o3)n2)c(Cl)c1 [IA-46]
22 | ≤ 10 | CNCc1ccc(-c2nnc(-c3nc(-c4ccc(S(=O)(=O)C(C)C)c(F)c4)cnc3N)o2)c(F)c1 [IA-321, 5-(3-fluoro-4-isopropylsulfonyl-phenyl)-3-[5-[2-fluoro-4-(methylaminomethyl)phenyl]-1,3,4-oxadiazol-2-yl]pyrazin-2-amine]
23 | 10 to 100 | CN(C)C(=O)c1ccc(-c2cnc(N)c(-c3nnc(-c4ccccn4)o3)n2)cc1 [IA-51]
24 | 100 to 5000 | COc1ccccc1-c1cnc(N)c(-c2nnc(-c3ccccc3)o2)n1 [IA-65]
25 | 100 to 5000 | Nc1ncc(-c2ccc(C(=O)NCC3CCOCC3)cc2)nc1C(=O)Nc1ccccc1 [Compound I-69, 3-amino-N-phenyl-6-(4-((tetrahydro-2H-pyran-4-yl)methylcarbamoyl)phenyl)pyrazine-2-carboxamide]
26 | ≤ 10 | CCC(C)S(=O)(=O)c1ccc(-c2cnc(N)c(-c3nnc(-c4ccc(CNC)cc4)o3)n2)cc1 (stereo not drawn) [IA-313, 3-[5-[4-(methylaminomethyl)phenyl]-1,3,4-oxadiazol-2-yl]-5-(4-sec-butylsulfonylphenyl)pyrazin-2-amine]
27 | ≤ 10 | CCS(=O)(=O)c1ccc(-c2cnc(N)c(-c3nnc(-c4ccc(CNC)cc4)o3)n2)cc1 [IA-307, 5-(4-(ethylsulfonyl)phenyl)-3-(5-(4-((methylamino)methyl)phenyl)-1,3,4-oxadiazol-2-yl)pyrazin-2-amine]
28 | 100 to 5000 | CC(C)S(=O)(=O)c1ccc(-c2cnc(N)c(-c3nnc(CCCN)o3)n2)cc1 [IA-91, 3-[5-(3-aminopropyl)-1,3,4-oxadiazol-2-yl]-5-(4-isopropylsulfonylphenyl)pyrazin-2-amine]
29 | ≤ 10 | CC(C)(C)S(=O)(=O)c1ccc(-c2cnc(N)c(-c3nnc(-c4ccccc4)o3)n2)cc1 [IA-280, 5-(4-tert-butylsulfonylphenyl)-3-(5-phenyl-1,3,4-oxadiazol-2-yl)pyrazin-2-amine]
30 | ≤ 10 | CNCc1ccc(-c2cc(-c3nc(-c4ccc(S(=O)(=O)C(C)C)cc4)cnc3N)on2)cc1Cl [IIA-13, 3-[3-[3-chloro-4-(methylaminomethyl)phenyl]isoxazol-5-yl]-5-(4-isopropylsulfonylphenyl)pyrazin-2-amine]
31 | ≤ 10 | Nc1ncc(-c2ccc(C(=O)N3CCCNCC3)cc2)nc1C(=O)Nc1nc2ccccc2[nH]1 [Compound V-10]
32 | 10 to 100 | CN(C)C(=O)c1ccc(-c2cnc(N)c(-c3nnc(-c4ccccc4)o3)n2)c(-c2cnco2)c1 [IA-161, 4-[5-amino-6-(5-phenyl-1,3,4-oxadiazol-2-yl)pyrazin-2-yl]-N,N-dimethyl-3-oxazol-5-yl-benzamide]
33 | 10 to 100 | COc1ccccc1NC(=O)c1nc(-c2cccnc2)cnc1N [Compound I-106, 3-amino-N-(2-methoxyphenyl)-6-(pyridin-3-yl)pyrazine-2-carboxamide]
